Laboratory results: the supplement of paper PMC10307832

Columns and labels:
Experiment in all cases: relative viability (nuclei count vs DMSO), 5 days (fraction); higher = more cells survive
COR-L 105 = test system: COR-L 105
Method in brief: (§1)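 Relative viability divides the nuclei count in treated wells by that in vehicle wells. Lung cancer cell lines were seeded in 1536-well plates, dosed by pin tool the next day, and fixed and stained after 5 days in one step with final 0.05% Triton X-100, 1% formaldehyde and 1 ug/ml Hoechst. Dosing was a single drug or a fixed anchor-drug dose plus five library-drug doses (not always all listed) in √10 steps, and values are medians of duplicate plates imaged at 4×.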

PC-14 = test system: PC-14
Method in brief: as §1

NCI-H1734 = test system: NCI-H1734
Method in brief: as §1

NCI-H2228 = test system: NCI-H2228
Method in brief: as §1

NCI-H1395 = test system: NCI-H1395
Method in brief: as §1

LU99A = test system: LU99A
Method in brief: as §1

HCC-366 = test system: HCC-366
Method in brief: as §1

NCI-H520 = test system: NCI-H520
Method in brief: as §1

NCI-H1666 = test system: NCI-H1666
Method in brief: as §1

LC-2-ad = test system: LC-2-ad
Method in brief: as §1

PC-3 [JPC-3] = test system: PC-3 [JPC-3]
Method in brief: as §1

NCI-H1944 = test system: NCI-H1944
Method in brief: as §1

NCI-H838 = test system: NCI-H838
Method in brief: as §1

HARA = test system: HARA
Method in brief: as §1

NCI-H1975 = test system: NCI-H1975
Method in brief: as §1

HCC-15 = test system: HCC-15
Method in brief: as §1

NCI-H1993 = test system: NCI-H1993
Method in brief: as §1

H3255 = test system: H3255
Method in brief: as §1

NCI-H3122 = test system: NCI-H3122
Method in brief: as §1

NCI-H661 = test system: NCI-H661
Method in brief: as §1

SK-LU-1 = test system: SK-LU-1
Method in brief: as §1

CAL-12T = test system: CAL-12T
Method in brief: as §1

NCI-H647 = test system: NCI-H647
Method in brief: as §1

SMILES: O=c1[nH]c2ccccc2n1C1CCN(CCCC(c2ccc(F)cc2)c2ccc(F)cc2)CC1 [Pimozide] + COc1cc2c(Oc3ccc(NC(=O)C4(C(=O)Nc5ccc(F)cc5)CC4)cc3F)ccnc2cc1OCCCN1CCOCC1 [Foretinib] (partner 0.25 µM)
- relative viability (COR-L 105; first compound 0.253 µM): 1.01
- relative viability (COR-L 105; first compound 0.8 µM): 0.99
- relative viability (COR-L 105; first compound 2.53 µM): 0.876
- relative viability (COR-L 105; first compound 8 µM): 0.779
- relative viability (PC-14; first compound 0.253 µM): 1
- relative viability (PC-14; first compound 0.8 µM): 0.943
- relative viability (PC-14; first compound 2.53 µM): 0.965
- relative viability (PC-14; first compound 8 µM): 1.02
- relative viability (NCI-H1734; first compound 0.08 µM): 0.77
- relative viability (NCI-H1734; first compound 0.253 µM): 0.767
- relative viability (NCI-H1734; first compound 2.53 µM): 0.883
- relative viability (NCI-H1734; first compound 8 µM): 0.834
- relative viability (NCI-H2228; first compound 0.08 µM): 0.863
- relative viability (NCI-H2228; first compound 0.253 µM): 0.839
- relative viability (NCI-H2228; first compound 0.8 µM): 0.574
- relative viability (NCI-H2228; first compound 2.53 µM): 0.831
- relative viability (NCI-H2228; first compound 8 µM): 0.612
- relative viability (NCI-H1395; first compound 0.08 µM): 1.02
- relative viability (NCI-H1395; first compound 0.253 µM): 0.975
- relative viability (NCI-H1395; first compound 0.8 µM): 0.953
- relative viability (NCI-H1395; first compound 2.53 µM): 1.03
- relative viability (NCI-H1395; first compound 8 µM): 0.91
- relative viability (LU99A; first compound 0.08 µM): 0.872
- relative viability (LU99A; first compound 0.253 µM): 0.756
- relative viability (LU99A; first compound 0.8 µM): 0.922
- relative viability (LU99A; first compound 2.53 µM): 0.84
- relative viability (LU99A; first compound 8 µM): 0.922
- relative viability (HCC-366; first compound 0.08 µM): 0.862
- relative viability (HCC-366; first compound 0.253 µM): 0.952
- relative viability (HCC-366; first compound 0.8 µM): 0.866
- relative viability (HCC-366; first compound 2.53 µM): 0.925
- relative viability (HCC-366; first compound 8 µM): 0.859
- relative viability (NCI-H520; first compound 0.08 µM): 0.886
- relative viability (NCI-H520; first compound 0.253 µM): 0.779
- relative viability (NCI-H520; first compound 0.8 µM): 0.618
- relative viability (NCI-H520; first compound 2.53 µM): 0.916
- relative viability (NCI-H520; first compound 8 µM): 0.898
- relative viability (NCI-H1666; first compound 0.08 µM): 0.952
- relative viability (NCI-H1666; first compound 0.253 µM): 0.939
- relative viability (NCI-H1666; first compound 0.8 µM): 0.941
- relative viability (NCI-H1666; first compound 2.53 µM): 0.867
- relative viability (NCI-H1666; first compound 8 µM): 0.857
- relative viability (LC-2-ad; first compound 0.08 µM): 0.911
- relative viability (LC-2-ad; first compound 0.253 µM): 0.928
- relative viability (LC-2-ad; first compound 0.8 µM): 0.909
- relative viability (LC-2-ad; first compound 2.53 µM): 0.901
- relative viability (LC-2-ad; first compound 8 µM): 0.868
- relative viability (PC-3 [JPC-3]; first compound 0.08 µM): 0.839
- relative viability (PC-3 [JPC-3]; first compound 0.253 µM): 1.03
- relative viability (PC-3 [JPC-3]; first compound 0.8 µM): 0.952
- relative viability (PC-3 [JPC-3]; first compound 2.53 µM): 0.931
- relative viability (PC-3 [JPC-3]; first compound 8 µM): 0.86
- relative viability (NCI-H1944; first compound 0.08 µM): 0.901
- relative viability (NCI-H1944; first compound 0.253 µM): 0.891
- relative viability (NCI-H1944; first compound 0.8 µM): 0.807
- relative viability (NCI-H1944; first compound 2.53 µM): 0.735
- relative viability (NCI-H1944; first compound 8 µM): 0.817
- relative viability (NCI-H838; first compound 0.08 µM): 1.02
- relative viability (NCI-H838; first compound 0.253 µM): 1.11
- relative viability (NCI-H838; first compound 0.8 µM): 1.08
- relative viability (NCI-H838; first compound 2.53 µM): 1.03
- relative viability (NCI-H838; first compound 8 µM): 1.04
- relative viability (HARA; first compound 0.253 µM): 0.874
- relative viability (HARA; first compound 0.8 µM): 0.873
- relative viability (HARA; first compound 2.53 µM): 0.733
- relative viability (HARA; first compound 8 µM): 0.766
- relative viability (NCI-H1975; first compound 0.08 µM): 0.948
- relative viability (NCI-H1975; first compound 0.253 µM): 0.84
- relative viability (NCI-H1975; first compound 0.8 µM): 1.02
- relative viability (NCI-H1975; first compound 2.53 µM): 0.847
- relative viability (NCI-H1975; first compound 8 µM): 0.952
- relative viability (HCC-15; first compound 0.08 µM): 1.09
- relative viability (HCC-15; first compound 0.253 µM): 1.01
- relative viability (HCC-15; first compound 0.8 µM): 0.868
- relative viability (HCC-15; first compound 2.53 µM): 0.964
- relative viability (HCC-15; first compound 8 µM): 0.94
- relative viability (NCI-H1993; first compound 0.08 µM): 0.705
- relative viability (NCI-H1993; first compound 0.253 µM): 0.777
- relative viability (NCI-H1993; first compound 0.8 µM): 0.727
- relative viability (NCI-H1993; first compound 2.53 µM): 0.788
- relative viability (NCI-H1993; first compound 8 µM): 0.851
- relative viability (H3255; first compound 0.253 µM): 0.781
- relative viability (H3255; first compound 0.8 µM): 0.775
- relative viability (H3255; first compound 2.53 µM): 0.78
- relative viability (H3255; first compound 8 µM): 0.894
- relative viability (NCI-H3122; first compound 0.08 µM): 0.911
- relative viability (NCI-H3122; first compound 0.253 µM): 1
- relative viability (NCI-H3122; first compound 0.8 µM): 0.91
- relative viability (NCI-H3122; first compound 2.53 µM): 0.968
- relative viability (NCI-H3122; first compound 8 µM): 0.923
- relative viability (NCI-H661; first compound 0.08 µM): 1.02
- relative viability (NCI-H661; first compound 0.253 µM): 1.03
- relative viability (NCI-H661; first compound 0.8 µM): 0.929
- relative viability (NCI-H661; first compound 2.53 µM): 0.921
- relative viability (NCI-H661; first compound 8 µM): 0.907
- relative viability (SK-LU-1; first compound 0.08 µM): 0.888
- relative viability (SK-LU-1; first compound 0.253 µM): 0.793
- relative viability (SK-LU-1; first compound 0.8 µM): 0.783
- relative viability (SK-LU-1; first compound 2.53 µM): 0.777
- relative viability (SK-LU-1; first compound 8 µM): 0.637
- relative viability (CAL-12T; first compound 0.08 µM): 0.979
- relative viability (CAL-12T; first compound 0.253 µM): 1.17
- relative viability (CAL-12T; first compound 0.8 µM): 1.11
- relative viability (CAL-12T; first compound 2.53 µM): 0.928
- relative viability (CAL-12T; first compound 8 µM): 0.96
- relative viability (NCI-H647; first compound 0.08 µM): 1.28
- relative viability (NCI-H647; first compound 0.253 µM): 1.17
- relative viability (NCI-H647; first compound 0.8 µM): 1.14
- relative viability (NCI-H647; first compound 2.53 µM): 1.22
- relative viability (NCI-H647; first compound 8 µM): 1.17
